Values of other authors, collected in patent US20240423911A1, “EMULSION COMPOSITION” (AstaReal Co., Ltd., priority 2018, published 2024).

How the values were obtained:
[1] = Takahashi et al. 2004

SMILES: CC1=C(/C=C/C(C)=C/C=C/C(C)=C/C=C/C=C(C)/C=C/C=C(C)/C=C/C2=C(C)C(=O)C(O)CC2(C)C)C(C)(C)CC(O)C1=O (stereo not drawn) [Astaxanthin, 3,3′-dihydroxy-β,β-carotene-4,4′-dione]
- mutagenicity [1]: no mutagenicity has been observed
- antioxidative activity relative to vitamin E (higher than that of vitamin E): approximately 1000 times
- antioxidative activity relative to β-carotene (higher than that of β-carotene): ~40 times
